Source: publication PMC6278354, “Investigation of New Orexin 2 Receptor Modulators Using In Silico and In Vitro Methods” (Molecules, 2018)
Where two headings read alike, the source gives them in different places.

Tests used:
in vitro = settings: PAMPA, pH 7.4
[1] = PAMPA assay for prediction of BBB penetration (polar brain lipid); settings: for CNS Predicted Availability: class from PAMPA Pe; for Papp at 30 µM: PAMPA, pH 7.4; for BBB permeation via passive diffusion, in words: from PAMPA Pe
human OX2R [2] = target: T1, human OX2R (Homo sapiens, UniProt O43614); assay: OX2R calcium assay, agonist mode (Fluo-3, CHO-K1 cells stably expressing human OX2R); format: cell-based; settings: for agonistic effect in screening: 10 μM ligand; for agonistic effect at higher concentrations: higher concentrations than 10 μM, data not shown
T1 construct: host or cells: CHO-K1
T1 sequence (O43614 1-444): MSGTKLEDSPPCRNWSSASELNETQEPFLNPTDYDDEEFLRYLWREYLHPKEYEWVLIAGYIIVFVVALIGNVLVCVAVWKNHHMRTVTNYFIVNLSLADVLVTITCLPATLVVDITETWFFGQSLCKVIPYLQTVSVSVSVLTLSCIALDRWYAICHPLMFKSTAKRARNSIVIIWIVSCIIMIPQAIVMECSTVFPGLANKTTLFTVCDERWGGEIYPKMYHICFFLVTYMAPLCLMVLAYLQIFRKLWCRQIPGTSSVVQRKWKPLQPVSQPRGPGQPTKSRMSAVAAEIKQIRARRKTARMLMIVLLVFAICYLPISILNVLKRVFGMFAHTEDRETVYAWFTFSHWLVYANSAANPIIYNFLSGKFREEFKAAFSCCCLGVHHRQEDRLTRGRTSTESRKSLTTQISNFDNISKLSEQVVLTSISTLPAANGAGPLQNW

MTT cytotoxicity assay = format: cell-based; settings: Chinese hamster
Procedure: (§1) Adherent epithelial CHO-K1 cell line (Chinese hamster ovary, ATCC, #CCL-61, Manassas, VA, USA) was grown in Ham’s F12 Nutrient Mixture supplemented with 10% heat-inactivated FBS and antibiotics 1% penicillin (10,000 U/mL)/streptomycin (10,000 µg/mL) at 37 °C, 95% humidity and under 5% CO2.
(§2) The cytotoxic effect of the studied compounds was assessed using standard MTT (3-[4–dimethylthiazol-2-yl]-2,5-diphenyltetrazolium bromide) assay on the CHO-K1 cell line. […] Cells were seeded in 96-well plates and exposed to the tested compounds in the medium (100 µL) for 24 h at 37 °C, 95% humidity, and in an atmosphere of 5% CO2. Subsequently, this medium was replaced by the medium containing MTT (10 µM) and incubated for another 3–4 h. After that, the medium with MTT was removed and formazan crystals were dissolved by the addition of 100 µL DMSO. Viability of the cells was estimated spectrophotometrically by the amount of produced formazan. The absorbance was measured at 570 nm, with 650 nm as a reference wavelength on a Synergy HT reader (Biotek, USA). Results were expressed as IC50 from the control-subtracted triplicates (in comparison with untreated control) using non-linear regression (four parameters) in GraphPad Prism 7.03 (GraphPad Software Inc., CA, USA).

human OX2R [3] = target: T1, human OX2R; assay: OX2R calcium assay, antagonist mode against orexin A (Fluo-3, CHO-K1 cells stably expressing human OX2R); format: cell-based; settings: for IC50: 0.1 μM orexin A as agonist, mean ± SEM, n = 3, read-out: IC50 antagonistic effect in orexin A-OX2R interaction; for antagonistic screening: reduction of orexin A response signal: ligand 10 μM, orexin A 100 nM, data not shown
CHO-K1 cell line = assay: MTT cytotoxicity assay; format: cell-based; settings: Chinese hamster, 24 h
Procedure: as §1, §2

[4] = PAMPA, pH 7.4
[5] = CHO-K1 cells, MTT, 24 h exposure, read-out: Cytotoxicity CHO-K1 IC50 ± SEM

Structure (SMILES)	Papp at 30 µM [1]	IC50 (human OX2R [3])	CNS Predicted Availability [1]	IC50 at 24 h (MTT cytotoxicity assay; [5])	antagonistic screening: reduction of orexin A response signal (human OX2R [3])	also measured
CNC(=C[N+](=O)[O-])NCCSCc1ccc(CN(C)C)o1 [Ranitidine, reference compound]			CNS − (CNS − (low BBB permeation predicted): Pe (×10^−6 cm s^−1) < 2.0)			Papp (in vitro): 0.04 ± 0.02 ×10⁻⁶ cm/s
CC1CCCC(=O)CCC/C=C/c2cc3c(c(O)c2C(=O)O1)C(c1cc2ccccc2nc1O)CC(=O)O3 (stereo not shown) [Ligand L5, (12E)-22-hydroxy-20-(2-hydroxyquinolin-3-yl)-4-methyl-3,17-dioxatricyclo[12.8.0.0^16,21]docosa-1(14),12,15,21-tetraene-2,8,18-trione]			CNS + (CNS + (high BBB permeation predicted): Pe (×10^−6 cm s^−1) > 4.0)			IC50 at 24 h (MTT cytotoxicity assay; MTT, 24 h exposure, read-out: Cytotoxicity CHO-K1 IC50 ± SEM): 59 ± 6.41 µM; Papp (in vitro): 12 ± 2.5 ×10⁻⁶ cm/s
Cc1ccccc1Cn1cc(/C=C2\C(=N)N3N=C(CC(=O)N4CCCC4)SC3=NC2=O)c2ccccc21 [Ligand L7, (6E)-5-imino-6-({1-[(2-methylphenyl)methyl]-1H-indol-3-yl}methylidene)-2-[2-oxo-2-(pyrrolidin-1-yl)ethyl]-5H,6H,7H-[1,3,4]thiadiazolo[3,2-a]pyrimidin-7-one]	3.37 ± 2.1 ×10⁻⁶ cm/s	25 ± 2.6 µM	CNS +/− (CNS +/− (BBB permeation uncertain): Pe (×10^−6 cm s^−1) from 4.0 to 2.0)	61.8 ± 3.74 µM	significantly reduce the signal of orexin A response	Pe ± SEM ([1]; PAMPA-BBB, PBS pH 7.4, 30 µM donor, at least three measurements): 2.0–4.0 ×10^−6 cm s^−1; BBB permeation via passive diffusion, in words [1]: uncertain permeation through the BBB
O=C(c1cnn(-c2ncc3c(n2)-c2ccccc2CC3)c1C1CC1)N1CCN(Cc2ccccc2)CC1 [Ligand L1, 1-(1-{5H,6H-benzo[h]quinazolin-2-yl}-5-cyclopropyl-1H-pyrazole-4-carbonyl)-4-benzylpiperazine]	10.2 ± 0.9 ×10⁻⁶ cm/s		CNS + (CNS + (high BBB permeation predicted): Pe (×10^−6 cm s^−1) > 4.0)	78.8 ± 6.88 µM		
CCn1nnc2cc(C(=O)Nc3ccc4[nH]c(-c5cc(F)ccc5F)nc4c3)ccc21 [Ligand L11, N-[2-(2,5-difluorophenyl)-1H-1,3-benzodiazol-5-yl]-1-ethyl-1H-1,2,3-benzotriazole-5-carboxamide]				28.3 ± 4.07 µM		agonistic effect in screening (human OX2R [2]): subtle agonistic effect; agonistic effect at higher concentrations (human OX2R [2]): neither an agonistic nor dose-response effect
O=C1CC(C(=O)Nc2cccc(-c3ccc4c(c3)CCO4)c2)c2ccccc2N1 (stereo not shown) [Ligand L10, N-[3-(2,3-dihydro-1-benzofuran-5-yl)phenyl]-2-oxo-1,2,3,4-tetrahydroquinoline-4-carboxamide]	18.9 ± 2.4 ×10⁻⁶ cm/s	27.8 ± 0.5 µM	CNS + (CNS + (high BBB permeation predicted): Pe (×10^−6 cm s^−1) > 4.0)	53.9 ± 5.03 µM	significantly reduce the signal of orexin A response	
O=C(Nc1ccc2n(c1=O)C[C@H]1C[C@@H]2CN(C(=O)c2ccccn2)C1)c1ccccc1 [Ligand L8, N-[(1R,9S)-6-oxo-11-(pyridine-2-carbonyl)-7,11-diazatricyclo[7.3.1.0^2,7]trideca-2,4-dien-5-yl]benzamide]			CNS +/− (CNS +/− (BBB permeation uncertain): Pe (×10^−6 cm s^−1) from 4.0 to 2.0)			IC50 at 24 h (MTT cytotoxicity assay; Cytotoxicity CHO-K1 IC50 ± SEM): > 700 µM; IC50 (CHO-K1 cell line): ~700 µM; Pe ± SEM [4]: 2.0–4.0; Papp at 30 µM (in vitro): 4 ± 0.3 ×10⁻⁶ cm/s; BBB permeation via passive diffusion, in words [1]: uncertain permeation through the BBB
O=C1CN(C(=O)CN2CCN(S(=O)(=O)c3ccc4ccccc4c3)CC2)c2ccccc2N1 [Ligand L2, 4-{2-[4-(naphthalene-2-sulfonyl)piperazin-1-yl]acetyl}-1,2,3,4-tetrahydroquinoxalin-2-one]	31.6 ± 3.4 ×10⁻⁶ cm/s		CNS + (CNS + (high BBB permeation predicted): Pe (×10^−6 cm s^−1) > 4.0)	165 ± 5.36 µM		

More lines, main results first:

Papp at 30 µM [1]	IC50 (human OX2R [3])	Structure (SMILES)	CNS Predicted Availability [1]	IC50 at 24 h (MTT cytotoxicity assay; [5])	antagonistic screening: reduction of orexin A response signal (human OX2R [3])	also measured
32.3 ± 1.5 ×10⁻⁶ cm/s		O=C(Cn1nc(-c2ccc(F)cc2)oc1=O)N1CCCC1c1ccc2c(c1)OCCCO2 (stereo not shown) [Ligand L9, 3-{2-[2-(3,4-dihydro-2H-1,5-benzodioxepin-7-yl)pyrrolidin-1-yl]-2-oxoethyl}-5-(4-fluorophenyl)-2,3-dihydro-1,3,4-oxadiazol-2-one]	CNS + (CNS + (high BBB permeation predicted): Pe (×10^−6 cm s^−1) > 4.0)	144 ± 11.1 µM		agonistic effect in screening (human OX2R [2]): subtle agonistic effect; agonistic effect at higher concentrations (human OX2R [2]): neither an agonistic nor dose-response effect
17.6 ± 6.4 ×10⁻⁶ cm/s	12.2 ± 3.1 µM	Cn1c(=O)c2c(-c3ccccc3)n3c(c2n(C)c1=O)C(c1coc2ccccc2c1=O)OCC3 (stereo not shown) [Ligand L6, 3,5-dimethyl-13-(4-oxo-4H-chromen-3-yl)-8-phenyl-12-oxa-3,5,9-triazatricyclo[7.4.0.0^2,7]trideca-1,7-diene-4,6-dione]	CNS + (CNS + (high BBB permeation predicted): Pe (×10^−6 cm s^−1) > 4.0)	> 100 µM	significantly reduce the signal of orexin A response	agonistic effect in screening (human OX2R [2]): subtle agonistic effect; agonistic effect at higher concentrations (human OX2R [2]): neither an agonistic nor dose-response effect
18.3 ± 0.1 ×10⁻⁶ cm/s	2.2 ± 0.47 µM	O=C(c1cc(-c2ccco2)nc2ccccc12)N1CCN(c2ccc(=O)n(-c3ccc(F)cc3)n2)CC1 [Ligand L4, 2-(4-fluorophenyl)-6-{4-[2-(furan-2-yl)quinoline-4-carbonyl]piperazin-1-yl}-2,3-dihydropyridazin-3-one]	CNS + (CNS + (high BBB permeation predicted): Pe (×10^−6 cm s^−1) > 4.0)	99.8 ± 10.7 µM	significantly reduce the signal of orexin A response	
17.9 ± 2.2 ×10⁻⁶ cm/s	8.9 ± 0.43 µM	O=C(c1cc(-c2ccco2)nc2ccccc12)N1CCN(C(=O)C2COc3ccccc3O2)CC1 (stereo not shown) [Ligand L3, 4-[4-(2,3-dihydro-1,4-benzodioxine-2-carbonyl)piperazine-1-carbonyl]-2-(furan-2-yl)quinoline]	CNS + (CNS + (high BBB permeation predicted): Pe (×10^−6 cm s^−1) > 4.0)	279 ± 36.6 µM	significantly reduce the signal of orexin A response	
